Experimental data: patent US20260256922A1, “PRODRUGS USEFUL FOR REDUCING ANTHRACYCLINE CARDIOTOXICITY” (WAKE FOREST UNIVERSITY HEALTH SCIENCES, priority 2022, published 2026)
Entries after “also recorded” stand apart in the source; their conditions may differ.

Assays:
[1] = tested on: 4T1 mouse breast cancer cells; assay: LDH release cytotoxicity assay in 4T1 cells; format: cell-based; details: 10 or 20 μM, 24 or 48 h, other than the lowest dose and shortest time
Description: FIG. 8. Cytotoxicity of DOX and prodrugs in 4T1 mouse breast cancer cells.
DOX is a known cytotoxic agent used against 4T1 triple-negative breast cancer cells grown in culture or injected orthotopically into mouse mammary fat pads to initiate the development of tumors.^52,53 As an initial test to see if c1 could retain the cytotoxic properties of DOX toward tumor-forming 4T1 cells, we conducted LDH assays to assess cytotoxicity of DOX, c1 and c2 treatments.

Nrf2 = Nrf2 and HO-1 immunoblots in H9C2 cells; format: cell-based, rat; details: H9C2, relative to DMSO vehicle
Description: The bar graphs below represent the mean±SEM. Results were statistically different between c1 and DOX in both cases (p=0.002 and p=0.019), and more marginally so between c1 and DMSO (p=0.011 and p.=0.025), for Nrf2 and HO-1, respectively.

H9C2 cardiomyoblasts = assay: Uptake into H9C2 cardiomyoblasts by live-cell confocal microscopy; format: cell-based, rat
Protocol: FIG. 4. Uptake of DOX and prodrugs c1 and c2 by H9C2 cardiomyoblasts. H9C2 cells cultures grown overnight on chambered coverslips in media with 10% serum were switched to Fluorobrite DMEM imaging media supplemented with 5% serum and prepared for live-cell imaging on a Zeiss LSM 880 confocal microscope, then 10 µM of c1, c2, or DOX was added and images were taken every 10 min (averaged every 30 min) for 18 h. Approximately 20 cells present in each field of view were averaged for each sample and time point; normalized and averaged data from two replicates each±SEM were included for c1 and DOX. An earlier independent trial yielded very similar results (Fig. S1).
Uptake of DOX and prodrugs into H9C2 cardiomyoblasts. Before comparing the biological effects of treatments by DOX and prodrugs, it was important to know their time dependence of accumulation into the H9C2 cardiomyoblasts under investigation. For this, confocal microscopy of live cells in culture was used to track in real time the accumulation of the fluorescent molecules into the cells, allowing direct comparisons between c1, c2 and Dox. […] Thus, any biological effects observed using c1 rather than DOX will not be due to limited cellular uptake.
To evaluate drug uptake, H9C2 cells were plated at a density of 20,000 per well on 24 well #1.5 polymer chambered coverslips (Ibidi) in media including 10% FBS and allowed to adhere for ~20 h. Prior to imaging analysis, the media was replaced with Fluorobrite DMEM imaging media (Gibco) supplemented with 5% FBS. To 1 mL of media in each well was added either vehicle (DMSO), or a 20 mM stock solution of c1, c2, or DOX to give final concentrations of 10 or 20 µM drug and 0.1% DMSO. […] DOX and the prodrugs were detected with excitation by a 458 nm laser at 0.3% and emission from 535-648 nm.
Each position consisted of a 3 slice z-stack that was compressed with a maximum intensity projection for analysis. […] The mean intensity for both channels was calculated, normalized, and then averaged to 30 min time points.

mitochondrial ROS = assay: Mitochondrial ROS in cardiomyoblasts; details: compared with DOX

COc1cccc2c1C(=O)c1c(O)c3c(c(O)c1C2=O)C[C@@](O)(C(=O)CO)C[C@@H]3O[C@H]1C[C@H](NC(=S)OCc2ccc(B3OC(C)(C)C(C)(C)O3)cc2)[C@H](O)[C@H](C)O1 [c1]
cytotoxicity (LDH release) [1]: comparable, sometimes less and sometimes more, toxicity relative to DOX
HO-1 expression (immunoblot) (Nrf2): largely preserved Nrf2 activation and HO-1 expression; also recorded: only moderately suppressive
Nrf2 activation (immunoblot) (Nrf2): largely preserved Nrf2 activation and HO-1 expression; also recorded: only moderately suppressive
time to maximal signal (cell accumulation) (H9C2 cardiomyoblasts; H9C2 cells, 10 μM, fluorescence): ~ 2 h
accumulation in cells compared with DOX (H9C2 cardiomyoblasts; imaging over 18 h): accumulated rapidly
mitochondrial ROS levels (mitochondrial ROS): lower levels of mitochondrial ROS
